Series [1] can be described thus: Cytotoxicity against chick embryo fibroblasts after 24 hrs by microscopic analysis. It is filed as cell-based, Gallus gallus, Fibroblast. The following applies: chicken.
The subject of series [2] is Newcastle disease virus. Description: Antiviral activity against Newcastle disease virus infected in chick embryo fibroblasts assessed as suppression of virus multiplication to 1% by measuring hemagglutinating activity by tube assay method. It is filed as functional. The settings on record: avian paramyxovirus 1.
Series [3] deals with Newcastle disease virus. Description: Ratio of amantadine hydrochloride MIC to compound MIC for Newcastle disease virus infected in chick embryo fibroblasts. It is filed as functional, avian paramyxovirus 1.

The structures appear in SMILES notation. In brackets after ≈: the same amount, converted by molar mass. Structures can show the parent of a compound that is named as a salt.

`O=P(O)(O[C@H]1C[C@H]2C[C@H]1[C@@H]1CCC[C@H]21)O[C@H]1C[C@H]2C[C@H]1[C@@H]1CCC[C@H]21` gave an MCC at 24 h in series [1] of 550 µM. For the same compound, the MIC in series [2] turned out to be 550 µM (≈ 202 µg/mL). The Ratio in series [3] was 2.
As for `O=P(O[C@H]1C[C@H]2C[C@H]1[C@@H]1CCC[C@H]21)(O[C@H]1C[C@H]2C[C@H]1[C@@H]1CCC[C@H]21)O[C@H]1C[C@H]2C[C@H]1[C@@H]1CCC[C@H]21`, in series [1], the MCC at 24 h amounted to 400 µM. Moreover, the MIC in series [2] was 1000 µM (≈ 501 µg/mL).
For `NC12CC3CC(CC(C3)C1)C2` [AMANTADINE HYDROCHLORIDE], the MCC at 24 h in series [1] came to 1300 µM. Also, the MIC in series [2] was determined as 1300 µM.
